Experimental data from publication PMC3958129, “Enzyme kinetics and distinct modulation of the protein kinase N family of kinases by lipid activators and small molecule inhibitors” (Bioscience Reports, 2014).
Where two headings read alike, the source gives them in different places.

Assays:
PKN3 [1] = target: T1, PKN3 (Homo sapiens, UniProt Q6P5Z2); assay: PKN3 kinase inhibition, off-chip mobility shift assay; format: biochemical; design: Full-length, FLAG-tagged human PKN1, PKN2 and PKN3 were expressed in mammalian HEK-293 cells
T1 sequence (Q6P5Z2 whole entry): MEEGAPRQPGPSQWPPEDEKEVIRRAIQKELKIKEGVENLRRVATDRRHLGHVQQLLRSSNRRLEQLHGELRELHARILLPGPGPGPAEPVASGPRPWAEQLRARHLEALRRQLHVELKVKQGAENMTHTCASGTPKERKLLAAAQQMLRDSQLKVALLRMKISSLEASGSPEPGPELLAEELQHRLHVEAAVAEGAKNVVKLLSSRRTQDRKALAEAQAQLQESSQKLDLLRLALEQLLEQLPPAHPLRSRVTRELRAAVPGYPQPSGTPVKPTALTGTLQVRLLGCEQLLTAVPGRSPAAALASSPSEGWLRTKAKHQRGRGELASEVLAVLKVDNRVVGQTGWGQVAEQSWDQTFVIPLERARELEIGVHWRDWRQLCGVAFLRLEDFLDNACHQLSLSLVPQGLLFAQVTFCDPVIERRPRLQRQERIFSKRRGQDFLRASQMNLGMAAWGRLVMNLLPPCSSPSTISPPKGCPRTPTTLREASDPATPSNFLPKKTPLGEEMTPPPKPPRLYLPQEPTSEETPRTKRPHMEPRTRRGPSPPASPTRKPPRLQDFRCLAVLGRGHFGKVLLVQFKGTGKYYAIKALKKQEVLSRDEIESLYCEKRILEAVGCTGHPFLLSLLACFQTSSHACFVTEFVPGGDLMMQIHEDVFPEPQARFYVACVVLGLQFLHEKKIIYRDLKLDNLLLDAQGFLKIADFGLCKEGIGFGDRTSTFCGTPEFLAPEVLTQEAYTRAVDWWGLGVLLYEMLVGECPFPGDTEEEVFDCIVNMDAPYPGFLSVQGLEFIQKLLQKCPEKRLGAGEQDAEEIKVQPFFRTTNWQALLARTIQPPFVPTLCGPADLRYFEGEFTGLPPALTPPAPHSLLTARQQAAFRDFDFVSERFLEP
Protocol: (§4) The activity of all PKN proteins was monitored through the use of a highly sensitive off-chip mobility shift assay utilizing a LabChip EZ Reader II instrument (Caliper Life Sciences/PerkinElmer); this assay format has been described elsewhere [31]. […] Peptide concentration was adjusted according to purity and peptide content. For inhibition studies, the inhibitor was pre-incubated with enzyme for 15 min at room temperature. All reactions were initiated with ATP and conducted at room temperature (~22°C).
(§5) All data were globally fit using non-linear regression and GraphPad Prism software. Non-linear data were converted to double-reciprocal Lineweaver–Burk plots for visual and presentation purposes only. Kinetic data were analysed in duplicate, and each plot is representative of at least two independent experiments.
(§6) For enzyme inhibition studies, data were fit to eqns (2)–(4) for competitive, non-competitive and uncompetitive inhibition, respectively: (2) v=Vmax[S]/[S]+KM1+[I]/Ki (3) v=Vmax[S]/([S]+KM)1+[I]/Ki (4) v=Vmax[S]/[S]1+[I]/αKi+KM
(§7) For eqns (1)–(4), v is measured velocity, Vmax is maximum velocity, [ATP], [Pep] and [S] are concentrations of ATP, peptide and varied substrate, respectively; Kia is the equilibrium dissociation constant of ATP, KM,ATP, KM,Pep and KM are the Michaelis–Menten constants for ATP, peptide and the varied substrate, respectively. [I] is the inhibitor concentration, α describes the preference for inhibitor binding to either free or substrate bound enzyme and Ki is the inhibitor equilibrium dissociation constant.

PKN2 [2] = target: T2, PKN2 (Homo sapiens, UniProt Q16513); assay: PKN2 kinase inhibition, off-chip mobility shift assay; format: biochemical; design: Full-length, FLAG-tagged human PKN1, PKN2 and PKN3 were expressed in mammalian HEK-293 cells; host or cells: HEK-293 (transient transfection, pcDNA4/TO)
T2 sequence (Q16513 whole entry): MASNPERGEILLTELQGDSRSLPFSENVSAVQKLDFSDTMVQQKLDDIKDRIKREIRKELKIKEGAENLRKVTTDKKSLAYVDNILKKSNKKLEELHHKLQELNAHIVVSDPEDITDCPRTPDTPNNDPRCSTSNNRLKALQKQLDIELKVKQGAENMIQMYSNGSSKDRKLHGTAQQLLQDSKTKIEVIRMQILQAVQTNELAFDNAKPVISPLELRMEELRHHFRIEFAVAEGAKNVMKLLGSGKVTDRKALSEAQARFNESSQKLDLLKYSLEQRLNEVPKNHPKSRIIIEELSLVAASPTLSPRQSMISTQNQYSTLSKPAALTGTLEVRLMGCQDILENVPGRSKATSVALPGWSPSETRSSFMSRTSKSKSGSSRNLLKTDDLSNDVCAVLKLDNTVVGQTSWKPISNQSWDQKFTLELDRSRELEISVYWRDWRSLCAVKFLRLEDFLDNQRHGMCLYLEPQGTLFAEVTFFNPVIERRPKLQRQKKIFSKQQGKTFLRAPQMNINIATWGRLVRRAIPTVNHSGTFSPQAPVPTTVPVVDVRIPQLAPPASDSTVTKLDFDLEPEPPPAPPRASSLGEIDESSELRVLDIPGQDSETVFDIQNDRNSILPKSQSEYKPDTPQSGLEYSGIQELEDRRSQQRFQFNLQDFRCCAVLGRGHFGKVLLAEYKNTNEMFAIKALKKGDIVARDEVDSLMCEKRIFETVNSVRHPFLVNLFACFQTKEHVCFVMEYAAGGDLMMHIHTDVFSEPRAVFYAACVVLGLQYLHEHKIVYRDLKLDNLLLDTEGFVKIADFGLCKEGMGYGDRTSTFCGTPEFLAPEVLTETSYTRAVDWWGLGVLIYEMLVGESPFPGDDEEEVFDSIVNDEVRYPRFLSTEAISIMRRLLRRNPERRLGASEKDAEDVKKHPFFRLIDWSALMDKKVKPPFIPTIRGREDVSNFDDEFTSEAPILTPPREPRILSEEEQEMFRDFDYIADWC
Protocol: as §4, §5, §6, §7

PKN2 [3] = target: T2, PKN2; assay: Lipid activation of PKN2 kinase activity, off-chip mobility shift assay; format: biochemical; design: Full-length, FLAG-tagged human PKN1, PKN2 and PKN3 were expressed in mammalian HEK-293 cells; host or cells: HEK-293 (transient transfection, pcDNA4/TO); conditions: for effect on PKN2 kinase activity: in words, saturating ATP; for PKN2 Maximal fold activation: increase in initial rate
Protocol: (§1) Lipids were supplied as a solid powders, ethanol, or chloroform solutions. All solids were dissolved directly into assay buffer and briefly water bath sonicated at room temperature for 10 min. Lipids supplied as solutions in organic solvent were dried under a gentle stream of nitrogen, resuspended in assay buffer, and similarly sonicated. All lipids were prepared fresh daily.
(§2) The activity of all PKN proteins was monitored through the use of a highly sensitive off-chip mobility shift assay utilizing a LabChip EZ Reader II instrument (Caliper Life Sciences/PerkinElmer); this assay format has been described elsewhere. Kinase activity was monitored through the phosphorylation of a 5-FAM-labelled PKN substrate peptide found through Pfizer in-house optimization efforts and derived from the amino acid sequence of GSK3α (accession no. AAH51865.1) with the following sequence: 5-FAM-C6-[…]-NH2. The likely site of phosphorylation is underlined, as determined through comparison with the published phosphorylation consensus sequence for PKN1 and PKN3 substrates. Reaction buffer contained 25 mM Tris, pH 8.0, 5 mM MgCl2, 0.002% CHAPS and 2 mM DTT, with indicated protein, ATP and peptide concentrations. Peptide concentration was adjusted according to purity and peptide content. For inhibition studies, the inhibitor was pre-incubated with enzyme for 15 min at room temperature. All reactions were initiated with ATP and conducted at room temperature (~22°C). Reactions were terminated by the addition of EDTA, pH 8.0, at a final concentration of 25 mM. All reaction rates were determined to be linear with respect to time and enzyme concentration where no more than 20% of peptide substrate had been converted to product. Aliquots of each reaction were transferred in duplicate to a 384-well plate and analysed on a LabChip EZ Reader II with separation buffer containing 100 mM Hepes, pH 7.5, 0.015% Brij-35, 1 mM EDTA, 0.1% CR3 coating reagent, 1×CR8 coating reagent and 5% DMSO, with the following settings: downstream voltage: −500 V, upstream voltage: −2300 V, base pressure: −0.5 psi; screen pressure: −1.7 psi. […]
(§3) Figure 2 PKN responses to lipid activators in biochemical assays Lipids were prepared as described under the Experimental section, and kinase activity of PKN isoforms was measured using off-chip mobility shift assay described in the Methods section. Each lipid was titrated in the presence of 1 nM, 5 nM and 3 nM PKN1–3, respectively, 3 μM peptide and 500 μM ATP. vi is the initial rate at each concentration of lipid activator and vo is the initial rate in the absence of lipid.

PKN3 [4] = target: T1, PKN3; assay: Lipid activation of PKN3 kinase activity, off-chip mobility shift assay; format: biochemical; design: Full-length, FLAG-tagged human PKN1, PKN2 and PKN3 were expressed in mammalian HEK-293 cells; conditions: increase in initial rate; saturating ATP (500 μM), 3 μM peptide, 3 nM PKN3
Protocol: as §1
The activity of all PKN proteins was monitored through the use of a highly sensitive off-chip mobility shift assay utilizing a LabChip EZ Reader II instrument (Caliper Life Sciences/PerkinElmer); this assay format has been described elsewhere. Kinase activity was monitored through the phosphorylation of a 5-FAM-labelled PKN substrate peptide found through Pfizer in-house optimization efforts and derived from the amino acid sequence of GSK3α (accession no. AAH51865.1) with the following sequence: 5-FAM-C6-[…]-NH2. The likely site of phosphorylation is underlined, as determined through comparison with the published phosphorylation consensus sequence for PKN1 and PKN3 substrates. Reaction buffer contained 25 mM Tris, pH 8.0, 5 mM MgCl2, 0.002% CHAPS and 2 mM DTT, with indicated protein, ATP and peptide concentrations. Peptide concentration was adjusted according to purity and peptide content. For inhibition studies, the inhibitor was pre-incubated with enzyme for 15 min at room temperature. All reactions were initiated with ATP and conducted at room temperature (~22°C). Reactions were terminated by the addition of EDTA, pH 8.0, at a final concentration of 25 mM. All reaction rates were determined to be linear with respect to time and enzyme concentration where no more than 20% of peptide substrate had been converted to product. Aliquots of each reaction were transferred in duplicate to a 384-well plate and analysed on a LabChip EZ Reader II with separation buffer containing 100 mM Hepes, pH 7.5, 0.015% Brij-35, 1 mM EDTA, 0.1% CR3 coating reagent, 1×CR8 coating reagent and 5% DMSO, with the following settings: downstream voltage: −500 V, upstream voltage: −2300 V, base pressure: −0.5 psi; screen pressure: −1.7 psi.
Ki values for representative inhibitors were determined by fitting initial reaction velocities to eqn (2) for competitive inhibition using the method of non-linear least-squares using GraphPad Prism. Turnover number (kcat) was calculated by normalizing Vmax values for enzyme concentration.
as §3

PKN1 [5] = target: T3, PKN1 (Homo sapiens, UniProt Q16512); assay: Lipid activation of PKN1 kinase activity, off-chip mobility shift assay; format: biochemical; design: Full-length, FLAG-tagged human PKN1, PKN2 and PKN3 were expressed in mammalian HEK-293 cells; host or cells: HEK-293 (transient transfection, pcDNA4/TO); conditions: saturating ATP (500 μM), 3 μM peptide, 1 nM PKN1; for PKN1 Maximal fold activation: increase in initial rate; for EC50: lipid activator
T3 sequence (Q16512 whole entry): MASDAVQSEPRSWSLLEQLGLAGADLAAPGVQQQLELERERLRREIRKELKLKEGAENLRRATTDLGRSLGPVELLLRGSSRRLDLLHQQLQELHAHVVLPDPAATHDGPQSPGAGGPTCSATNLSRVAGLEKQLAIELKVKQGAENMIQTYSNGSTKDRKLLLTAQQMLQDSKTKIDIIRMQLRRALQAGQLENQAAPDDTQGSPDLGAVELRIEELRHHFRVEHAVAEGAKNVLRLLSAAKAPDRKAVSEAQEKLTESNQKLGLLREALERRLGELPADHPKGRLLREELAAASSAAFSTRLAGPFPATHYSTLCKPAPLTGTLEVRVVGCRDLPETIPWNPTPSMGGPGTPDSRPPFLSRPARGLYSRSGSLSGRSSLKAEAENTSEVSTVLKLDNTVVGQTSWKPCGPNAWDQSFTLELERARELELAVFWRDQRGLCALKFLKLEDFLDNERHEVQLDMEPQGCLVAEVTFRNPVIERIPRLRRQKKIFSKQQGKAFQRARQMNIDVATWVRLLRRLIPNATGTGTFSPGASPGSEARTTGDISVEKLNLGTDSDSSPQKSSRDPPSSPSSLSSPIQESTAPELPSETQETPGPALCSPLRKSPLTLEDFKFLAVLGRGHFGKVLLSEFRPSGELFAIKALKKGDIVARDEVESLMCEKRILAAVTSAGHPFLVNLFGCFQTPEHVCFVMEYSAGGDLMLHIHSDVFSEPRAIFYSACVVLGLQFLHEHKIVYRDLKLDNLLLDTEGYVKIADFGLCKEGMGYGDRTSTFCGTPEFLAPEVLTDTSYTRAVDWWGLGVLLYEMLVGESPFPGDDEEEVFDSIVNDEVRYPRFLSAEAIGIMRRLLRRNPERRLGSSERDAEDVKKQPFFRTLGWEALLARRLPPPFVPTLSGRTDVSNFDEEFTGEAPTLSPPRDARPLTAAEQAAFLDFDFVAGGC
Protocol: as §1, §2, §3

PKN1 [6] = target: T3, PKN1; assay: PKN1 kinase inhibition, off-chip mobility shift assay; format: biochemical; design: Full-length, FLAG-tagged human PKN1, PKN2 and PKN3 were expressed in mammalian HEK-293 cells; host or cells: HEK-293 (transient transfection, pcDNA4/TO)
Protocol: as §4, §5, §6, §7

PKN1, PKN2 and PKN3 = assay: PKN isoform selectivity from Ki values (Ki ratio); format: biochemical, human; conditions: for Isoform selectivity: isoform(s) preferred, defined as ~10-fold or greater Ki ratio
From the text: The activity of all PKN proteins was monitored through the use of a highly sensitive off-chip mobility shift assay utilizing a LabChip EZ Reader II instrument (Caliper Life Sciences/PerkinElmer); this assay format has been described elsewhere [31]. […] The likely site of phosphorylation is underlined, as determined through comparison with the published phosphorylation consensus sequence for PKN1 and PKN3 substrates [27]. […] Peptide concentration was adjusted according to purity and peptide content. For inhibition studies, the inhibitor was pre-incubated with enzyme for 15 min at room temperature. All reactions were initiated with ATP and conducted at room temperature (~22°C).

[7] = absence of lipids, fit to competitive inhibition, ±S.D., n=2, read-out: PKN3, Ki
[8] = absence of lipids, fit to competitive inhibition, ±S.D., n=2, read-out: PKN2, Ki
[9] = saturating ATP (500 μM), 3 μM peptide, 5 nM PKN2
[10] = absence of lipids, fit to competitive inhibition, ±S.D., n=2, read-out: PKN1, Ki

Ki (PKN3 [1]; [7]) [nM] | Ki (PKN2 [2]; [8]) [nM] | PKN2 Maximal fold activation (PKN2 [3]; [9]) [fold] | PKN3 Maximal fold activation (PKN3 [4]) [fold] | PKN1 Maximal fold activation (PKN1 [5]) [fold] | Ki (PKN1 [6]; [10]) [nM] | Compound | other results
– | – | <2 | <2 | 11 | – | phosphatidylinositol-3,4,5-triphosphate [PIP3] | effect on PKN2 kinase activity (PKN2 [3]): not affected; EC50 (PKN1 [5]): 2000 ± 1000 nM
– | – | <2 | <2 | <2 | – | CCCCCCCC(=O)OC[C@H](CO)OC(=O)CCCCCCC [DAG, 1,2-dioctanoyl-sn-glycerol] | –
– | – | <2 | <2 | <2 | – | O=P(O)(O)O[C@@H]1[C@H](O)[C@H](O)[C@@H](OP(=O)(O)O)[C@H](OP(=O)(O)O)[C@H]1O [IP3, D-myo-inositol-1,3,5-triphosphate] | –
– | – | <2 | <2 | 15 | – | Phosphatidylserine | effect on PKN2 kinase activity (PKN2 [3]): not affected; PKN1 Maximal fold activation (PKN1 [5]; listed as phosphatidylserine): 10–16 fold; EC50 (PKN1 [5]): 3000 ± 1000 nM
– | – | 7 | <2 | 14 | – | phosphatidylinositol-4,5-bisphosphate [PIP2] | effect on PKN2 kinase activity (PKN2 [3]): increased; EC50 (PKN2 [3]; lipid activator, saturating ATP (500 μM), 3 μM peptide, 5 nM PKN2): 2000 ± 1000 nM; EC50 (PKN1 [5]): 5000 ± 1000 nM

More lines, now with the values behind:

Compound | Ki (PKN3 [1]; [7]) [nM] | Ki (PKN2 [2]; [8]) [nM] | PKN2 Maximal fold activation (PKN2 [3]; [9]) [fold] | PKN3 Maximal fold activation (PKN3 [4]) [fold] | PKN1 Maximal fold activation (PKN1 [5]) [fold] | Ki (PKN1 [6]; [10]) [nM] | other results
Cn1cc(C2=C(c3cn(CCCSC(=N)N)c4ccccc34)C(=O)NC2=O)c2ccccc21 [Compound 2, Ro 31-8220] | 170 ± 10 | 17 ± 2 | – | – | – | – | –
CN(C(Cc1ccc(OS(=O)(=O)c2cccc3cnccc23)cc1)C(=O)N1CCN(c2ccccc2)CC1)S(=O)(=O)c1cccc2cnccc12 (stereo not shown) [Compound 11, KN62] | – | > 5000 | – | – | – | 2900 ± 700 | –
Nc1nc(Nc2ccc(S(N)(=O)=O)cc2)nn1C(=S)Nc1c(F)cccc1F [Compound 6, CDK1/2 inhibitor III] | 34 ± 2 | 12 ± 2 | – | – | – | 220 ± 20 | selectivity for PKN2 over PKN1 (PKN1, PKN2 and PKN3; from Ki values): 18 fold; selectivity for PKN2 over PKN3 (PKN1, PKN2 and PKN3; in words): only minimal selectivity; Isoform selectivity (PKN1, PKN2 and PKN3): PKN2/3
CNCCNS(=O)(=O)c1cccc2cnccc12 [Compound 10, H-8] | 10 ± 2 | 1800 ± 300 | – | – | – | 1800 ± 300 | –
CO[C@@H]1[C@H](N(C)C(=O)c2ccccc2)C[C@H]2O[C@]1(C)n1c3ccccc3c3c4c(c5c6ccccc6n2c5c31)C(=O)NC4 [Compound 1, PKC412] | < 0.2 | – | – | – | – | – | –
H-PRLQRQERIFSKRRG-OH [PKN3-PRL] | – | – | – | – | – | – | Ki (PKN3 [1]; competitive with respect to peptide substrate, 250 μM ATP, 0.9–30 μM peptide, 4 nM enzyme, 5 μM arachidonic acid, read-out: PKN3 Ki with respect to peptide substrate): 5400 nM; PKN3 αKi with respect to ATP (PKN3 [1]; uncompetitive with respect to ATP, 6 μM peptide, 7.8–250 μM ATP, 4 nM enzyme, 5 μM arachidonic acid): 1.3 µM
Oc1ccc(-c2nc(-c3ccncc3)c(-c3ccc(F)cc3)[nH]2)cc1 [Compound 9, SB-202190] | 4 ± 0.3 | 2300 ± 400 | – | – | – | > 5000 | –
O=S(=O)(c1cccc2cnccc12)N1CCCNCC1 [Compound 12, HA-1077] | – | – | – | – | – | 800 ± 100 | –
O=C1Nc2ccc3ncsc3c2/C1=C/c1c[nH]cn1 [Compound 5, PKR inhibitor] | 240 ± 30 | 41 ± 7 | – | – | – | 410 ± 50 | Isoform selectivity (PKN1, PKN2 and PKN3): PKN2
Nc1ncnc2c1ncn2[C@@H]1O[C@H](COP(=O)(O)OP(=O)(O)O)[C@@H](O)[C@H]1O [ADP] | – | – | – | – | – | – | Ki (PKN3 [1]; product inhibition, competitive with respect to ATP, 5 μM peptide, 7.8–250 μM ATP, 4 nM enzyme, 5 μM arachidonic acid, read-out: PKN3 Ki): 69000 ± 5000 nM; Ki (PKN3 [1]; product inhibition, non-competitive with respect to peptide, 50 μM ATP, 0.9–30 μM peptide, 4 nM enzyme, 5 μM arachidonic acid, read-out: PKN3 Kiapp): 320000 ± 12000 nM; Ki (PKN1 [6]; product inhibition, competitive with respect to ATP, 3 μM peptide, 31–1000 μM ATP, 1 nM enzyme, 100 μM arachidonic acid, read-out: PKN1 Ki): 53000 ± 4000 nM; Ki (PKN1 [6]; product inhibition, non-competitive with respect to peptide, 50 μM ATP, 0.3–10 μM peptide, 1 nM enzyme, 100 μM arachidonic acid, read-out: PKN1 Kiapp): 170000 ± 14000 nM; Ki (PKN2 [2]; product inhibition, competitive with respect to ATP, 2 μM peptide, 6–200 μM ATP, 2 nM enzyme, 100 μM arachidonic acid, read-out: PKN2 Ki): 26000 ± 4000 nM; Ki (PKN2 [2]; product inhibition, non-competitive with respect to peptide, 20 μM ATP, 0.3–10 μM peptide, 2 nM enzyme, 100 μM arachidonic acid, read-out: PKN2 Kiapp): 65000 ± 5000 nM
CN(C)CCCn1cc(C2=C(c3c[nH]c4ccccc34)C(=O)NC2=O)c2ccccc21 [Compound 3, GF 109203X] | 2300 ± 500 | 90 ± 20 | – | – | – | 79 ± 8 | selectivity for PKN1/2 over PKN3 (PKN1, PKN2 and PKN3; from Ki values): at least 25 fold; Isoform selectivity (PKN1, PKN2 and PKN3): PKN1/2
